# Test results: patent publication US7998952B2, “Thiolactams and uses thereof” (Millennium Pharmaceuticals, Inc., priority 2008, dated 2011)
# Target: T1, recombinant human PLK1[2-369]T210D (Homo sapiens, UniProt P53350, T210D)
# T1 construct: recombinant human PLK1[2-369]T210D; Smt (SUMO) fusion partner (N, cleaved yes); host or cells: E. coli
# Test: PLK1 DELFIA Kinase Assay
# Format: biochemical
# Settings: 50 μM ATP, 2 μM peptide substrate, 0.3 nM enzyme, 90 minutes at room temperature
# Procedure, shortened: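 E. coli-expressed human PLK1, cleaved from an Smt fusion after Ni2+ purification, is reacted with or without inhibitor for 90 minutes at room temperature and stopped with EDTA. Product is captured on Neutravidin plates and quantified by europium DELFIA time-resolved fluorescence.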
# T1 sequence (P53350 2-369 T210D): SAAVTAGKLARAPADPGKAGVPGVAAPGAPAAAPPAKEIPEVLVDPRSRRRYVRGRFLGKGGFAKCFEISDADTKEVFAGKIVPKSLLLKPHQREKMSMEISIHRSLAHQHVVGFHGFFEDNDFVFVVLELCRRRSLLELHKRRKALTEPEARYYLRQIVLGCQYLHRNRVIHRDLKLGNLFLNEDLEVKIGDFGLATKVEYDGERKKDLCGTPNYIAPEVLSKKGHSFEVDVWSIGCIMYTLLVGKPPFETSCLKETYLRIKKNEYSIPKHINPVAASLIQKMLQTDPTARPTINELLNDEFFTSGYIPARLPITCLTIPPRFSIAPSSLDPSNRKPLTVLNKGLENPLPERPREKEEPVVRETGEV
row,IC50 [nM],Compound
1,< 5,"Nc1ccc(Nc2ncc3c(n2)-c2ccc(Cl)cc2NC(=S)C3)cn1 [Compound I-68, 2-[(6-aminopyridin-3-yl)amino]-9-chloro-5,7-dihydro-6H-pyrimido[5,4-d][1]benzazepine-6-thione]"
2,< 5,"Cc1nc(N2CCC(N(C)C)CC2)ccc1Nc1ncc2c(n1)-c1ccc(Cl)cc1NC(=S)C2 [Compound I-69, 9-chloro-2-({6-[4-(dimethylamino)piperidin-1-yl]-2-methylpyridin-3-yl}amino)-5,7-dihydro-6H-pyrimido[5,4-d][1]benzazepine-6-thione]"
3,5 to 25,"CN(C)CCc1cnc(C(F)(F)F)c(Nc2ncc3c(n2)-c2ccc(Cl)cc2NC(=S)C3)c1 [Compound I-70, 9-chloro-2-{[5-[2-(dimethylamino)ethyl]-2-(trifluoromethyl)pyridin-3-yl]amino}-5,7-dihydro-6H-pyrimido[5,4-d][1]benzazepine-6-thione]"
4,5 to 25,"CN(C)CCCN(C)c1ccc(Nc2ncc3c(n2)-c2ccc(Cl)cc2NC(=S)C3)cn1 [Compound I-71, 9-chloro-2-({6-[[3-(dimethylamino)propyl](methyl)amino]pyridin-3-yl}amino)-5,7-dihydro-6H-pyrimido[5,4-d][1]benzazepine-6-thione]"
5,< 5,"Cc1ncc(CCN2CCOCC2)cc1Nc1ncc2c(n1)-c1ccc(Cl)cc1NC(=S)C2 [Compound I-72, 9-chloro-2-{[2-methyl-5-(2-morpholin-4-ylethyl)pyridin-3-yl]amino}-5,7-dihydro-6H-pyrimido[5,4-d][1]benzazepine-6-thione]"
6,< 5,"Cc1nc(N2CCN(C)CC2)ccc1Nc1ncc2c(n1)-c1ccc(Cl)cc1NC(=S)C2 [Compound I-73, 9-chloro-2-{[2-methyl-6-(4-methylpiperazin-1-yl)pyridin-3-yl]amino}-5,7-dihydro-6H-pyrimido[5,4-d][1]benzazepine-6-thione]"
7,< 5,"Cc1cc(NC2CCN(C)CC2)ncc1Nc1ncc2c(n1)-c1ccc(C(F)(F)F)cc1NC(=S)C2 [Compound I-74, 2-({4-methyl-6-[(1-methylpiperidin-4-yl)amino]pyridin-3-yl}amino)-9-(trifluoromethyl)-5,7-dihydro-6H-pyrimido[5,4-d][1]benzazepine-6-thione]"
8,< 5,"Cc1nc(N(C)C2CCN(C)CC2)ccc1Nc1ncc2c(n1)-c1ccc(C(F)(F)F)cc1NC(=S)C2 [Compound I-75, 2-({2-methyl-6-[methyl(1-methylpiperidin-4-yl)amino]pyridin-3-yl}amino)-9-(trifluoromethyl)-5,7-dihydro-6H-pyrimido[5,4-d][1]benzazepine-6-thione]"
9,< 5,"Cc1nc(NCCCN(C)C)ccc1Nc1ncc2c(n1)-c1ccc(Cl)cc1NC(=S)C2 [Compound I-76, 9-chloro-2-[(6-{[3-(dimethylamino)propyl]amino}-2-methylpyridin-3-yl)amino]-5,7-dihydro-6H-pyrimido[5,4-d][1]benzazepine-6-thione]"
10,< 5,"Cc1nc(OC2CCN(C)CC2)ccc1Nc1ncc2c(n1)-c1ccc(C(F)(F)F)cc1NC(=S)C2 [Compound I-77, 2-({2-methyl-6-[(1-methylpiperidin-4-yl)oxy]pyridin-3-yl}amino)-9-(trifluoromethyl)-5,7-dihydro-6H-pyrimido[5,4-d][1]benzazepine-6-thione]"
11,< 5,"S=C1Cc2cnc(Nc3cncc(CCN4CCOCC4)c3)nc2-c2ccc(Cl)cc2N1 [Compound I-78, 9-chloro-2-{[5-(2-morpholin-4-ylethyl)pyridin-3-yl]amino}-5,7-dihydro-6H-pyrimido[5,4-d][1]benzazepine-6-thione]"
12,5 to 25,"Cc1ncc(CCCN(C)C)cc1Nc1ncc2c(n1)-c1ccc(C#N)cc1NC(=S)C2 [Compound I-79, 2-({5-[3-(dimethylamino)propyl]-2-methylpyridin-3-yl}amino)-6-thioxo-6,7-dihydro-5H-pyrimido[5,4-d][1]benzazepine-9-carbonitrile]"
13,< 5,"Cc1nc(NC2CCN(C)CC2)ccc1Nc1ncc2c(n1)-c1ccc(C3CC3)cc1NC(=S)C2 [Compound I-80, 9-cyclopropyl-2-({2-methyl-6-[(1-methylpiperidin-4-yl)amino]pyridin-3-yl}amino)-5,7-dihydro-6H-pyrimido[5,4-d][1]benzazepine-6-thione]"
14,< 5,"Cc1ccc(Nc2ncc3c(n2)-c2ccc(Cl)cc2NC(=S)C3)c(C)n1 [Compound I-81, 9-chloro-2-[(2,6-dimethylpyridin-3-yl)amino]-5,7-dihydro-6H-pyrimido[5,4-d][1]benzazepine-6-thione]"
15,5 to 25,"Cc1nc(N2CCCCC2)ccc1Nc1ncc2c(n1)-c1ccc(Cl)cc1NC(=S)C2 [Compound I-82, 9-chloro-2-[(2-methyl-6-piperidin-1-ylpyridin-3-yl)amino]-5,7-dihydro-6H-pyrimido[5,4-d][1]benzazepine-6-thione]"
16,5 to 25,"Cc1nc(N2CCOCC2)ccc1Nc1ncc2c(n1)-c1cc(CCCN(C)C)c(Cl)cc1NC(=S)C2 [Compound I-83, 9-chloro-10-[3-(dimethylamino)propyl]-2-[(2-methyl-6-morpholin-4-ylpyridin-3-yl)amino]-5,7-dihydro-6H-pyrimido[5,4-d][1]benzazepine-6-thione]"
17,< 5,"Cc1ncc(C2CCN(CCF)CC2)cc1Nc1ncc2c(n1)-c1ccc(Cl)cc1NC(=S)C2 [Compound I-84, 9-chloro-2-({5-[1-(2-fluoroethyl)piperidin-4-yl]-2-methylpyridin-3-yl}amino)-5,7-dihydro-6H-pyrimido[5,4-d][1]benzazepine-6-thione]"
18,< 5,"Cc1nc(NC2CCNCC2)ccc1Nc1ncc2c(n1)-c1ccc(Cl)cc1NC(=S)C2 [Compound I-85, 9-chloro-2-{[2-methyl-6-(piperidin-4-ylamino)pyridin-3-yl]amino}-5,7-dihydro-6H-pyrimido[5,4-d][1]benzazepine-6-thione]"
19,< 5,"Cc1nc2c(cc1Nc1ncc3c(n1)-c1ccc(C(F)(F)F)cc1NC(=S)C3)CN(C)CC2 [Compound I-86, 2-[(2,6-dimethyl-5,6,7,8-tetrahydro-1,6-naphthyridin-3-yl)amino]-9-(trifluoromethyl)-5,7-dihydro-6H-pyrimido[5,4-d][1]benzazepine-6-thione]"
20,< 5,"Cc1ncc(CCN2CCCCC2)cc1Nc1ncc2c(n1)-c1ccc(C(F)(F)F)cc1NC(=S)C2 [Compound I-87, 2-{[2-methyl-5-(2-piperidin-1-ylethyl)pyridin-3-yl]amino}-9-(trifluoromethyl)-5,7-dihydro-6H-pyrimido[5,4-d][1]benzazepine-6-thione]"
21,< 5,"Cc1nc(N(C)CCCN(C)C)ccc1Nc1ncc2c(n1)-c1ccc(C(F)(F)F)cc1NC(=S)C2 [Compound I-88, 2-({6-[[3-(dimethylamino)propyl](methyl)amino]-2-methylpyridin-3-yl}amino)-9-(trifluoromethyl)-5,7-dihydro-6H-pyrimido[5,4-d][1]benzazepine-6-thione]"
22,< 5,"Cc1ncc(CCCCN(C)C)cc1Nc1ncc2c(n1)-c1ccc(Cl)cc1NC(=S)C2 [Compound I-89, 9-chloro-2-({5-[4-(dimethylamino)butyl]-2-methylpyridin-3-yl}amino)-5,7-dihydro-6H-pyrimido[5,4-d][1]benzazepine-6-thione]"
23,< 5,"Cc1ncc(CCCN)cc1Nc1ncc2c(n1)-c1ccc(C(F)(F)F)cc1NC(=S)C2 [Compound I-90, 2-{[5-(3-aminopropyl)-2-methylpyridin-3-yl]amino}-9-(trifluoromethyl)-5,7-dihydro-6H-pyrimido[5,4-d][1]benzazepine-6-thione]"
24,< 5,"Cc1nc(NC2CCN(C)CC2)ccc1Nc1ncc2c(n1)-c1ccc(C(F)(F)F)cc1NC(=S)C2 [Compound I-92, 2-({2-methyl-6-[(1-methylpiperidin-4-yl)amino]pyridin-3-yl}amino)-9-(trifluoromethyl)-5,7-dihydro-6H-pyrimido[5,4-d][1]benzazepine-6-thione]"
25,5 to 25,"Cc1ncccc1Nc1ncc2c(n1)-c1cc(CCCN(C)C)c(Cl)cc1NC(=S)C2 [Compound I-93, 9-chloro-10-[3-(dimethylamino)propyl]-2-[(2-methylpyridin-3-yl)amino]-5,7-dihydro-6H-pyrimido[5,4-d][1]benzazepine-6-thione]"
26,< 5,"Cc1ncc(Nc2ncc3c(n2)-c2ccc(Cl)cc2NC(=S)C3)cc1CCCN(C)C [Compound I-94, 9-chloro-2-({5-[3-(dimethylamino)propyl]-6-methylpyridin-3-yl}amino)-5,7-dihydro-6H-pyrimido[5,4-d][1]benzazepine-6-thione]"
27,< 5,"Cc1nc(N(C)C2CCN(C)C2)ccc1Nc1ncc2c(n1)-c1ccc(C(F)(F)F)cc1NC(=S)C2 (stereo not drawn) [Compound I-95, 2-({2-methyl-6-[methy(1-methylpyrrolidin-3-yl)amino]pyridin-3-yl}amino)-9-(trifluoromethyl)-5,7-dihydro-6H-pyrimido[5,4-d][1]benzazepine-6-thione]"
28,< 5,"Cc1nc2c(cc1Nc1ncc3c(n1)-c1ccc(Cl)cc1NC(=S)C3)CC(N(C)C)CC2 (stereo not drawn) [Compound I-96, 9-chloro-2-{[6-(dimethylamino)-2-methyl-5,6,7,8-tetrahydroquinolin-3-yl]amino}-5,7-dihydro-6H-pyrimido[5,4-d][1]benzazepine-6-thione]"
29,5 to 25,"Cc1nc(NCCN(C)C)ccc1Nc1ncc2c(n1)-c1ccc(Cl)cc1NC(=S)C2 [Compound I-97, 9-chloro-2-[(6-{[2-(dimethylamino)-ethyl]amino}2-methylpyridin-3-yl)amino]-5,7-dihydro-6H-pyrimido[5,4-d][1]benzazepine-6-thione]"
30,> 25,"Cc1ccnc(C)c1Nc1ncc2c(n1)-c1ccc(C(F)(F)F)cc1NC(=S)C2 [Compound I-98, 2-[(2,4-dimethylpyridin-3-yl)amino]-9-(trifluoromethyl)-5,7-dihydro-6H-pyrimido[5,4-d][1]benzazepine-6-thione]"
